Test results: patent publication EP4722228A1, “NEW COMPOUND TARGETING MUSK AND USE THEREOF” (The University of Tokyo, priority 2023, dated 2024)
Bridge positions count the residues as written; N and C are the ends. Square brackets hold non-standard residues; d marks the D form. Peptide text beside a SMILES is read from it. I, II: the chains in the order shown. * marks the point of attachment. Palmitoyl = CCCCCCCCCCCCCCCC(=O)*; PEG3 = NCCOCCOCCOCCC(=O)O; Dap = NC[C@H](N)C(=O)O

System: rat PTMG model using anti-acetylcholine receptor monoclonal antibody (mAb35)
Assay: Wire-hang Test (Hanging Wire Test) in rat PTMG model
Type: in vivo
Details: approx. 30 hours after antibody
Description: (§1) 5-week-old female rats (n=20, LEW/CrlCrlj, 4 weeks old when carried in, Jackson Laboratory Japan) were divided into four groups (Group A, Group B, Group C, and Group D) using body weight measurement results as indexes. Vehicle was administered to Group A, and the test compound MuSK7-pal dissolved in vehicle was administered intravenously to each of Group B (3 mg/kg), Group C (2 mg/kg), and Group D (1 mg/kg) (Day 0). Two hours after intravenous administration, an anti-nicotinic acetylcholine receptor monoclonal antibody (mAb35, National Hospital Organization Nagasaki Kawatana Medical Center) dissolved in PBS (pH 7.4) as a drug for inducing the pathology of myasthenia gravis was administered intraperitoneally to all animals at 200 µg/rat (Day 0). The vehicle, which was a solvent of the compound, was phosphate-buffered saline (PBS) at pH 7.4 containing 20% hydroxypropyl-β-cyclodextrin and 0.02% polysorbate 80 (the same applies to Example 3(2)).
Approximately 30 hours after antibody administration, the muscle strength of the rats was measured using a lid (made of wire mesh) of a lidded plastic cage (Clean 200-TPX cage; CL-0108-2, CLEA Japan, Inc.). Specifically, the rats were left for 15 minutes or longer, and after confirming that they were in a resting state, they were placed on the cage lid. Next, the cage lid was lightly shaken about three times so that the rats would grasp the cage lid, and the cage lid was turned upside down. The inverted lid was held at a height (about 60 cm from the floor), which was high enough to prevent the rats from getting down easily but low enough not to injure them if they fell. The latency until the rats fell from the cage lid was measured for up to 120 seconds.
as §1, with “(n=24,” for “(n=20,”, “(0.5” for “(3”, “(0.25” for “(2”, “(0.1” for “(1”, “0).” for “0). The vehicle, which was a solvent of the compound, was phosphate-buffered saline (PBS) at pH 7.4 containing 20% hydroxypropyl-β-cyclodextrin and 0.02% polysorbate 80 (the same applies to Example 3(2)).”
The Wire-hang Test was performed approximately 30 hours after antibody administration. The implementation procedure was the same as that in (1) B above.
5-week-old female rats (LEW/CrlCrlj, 4 weeks old when carried in, Jackson Laboratory Japan) were divided into three groups (Group A, Group B, and Group C) using body weight measurement results as indexes. The test compound (tetramer of Ub012 (EAAAK)3) dissolved in vehicle was administered intravenously to Group A (5 mg/kg) (n=5), the test compound (tetramer of Ub012(ΔGG) (EAAAK)3) dissolved in vehicle was administered intravenously to Group B (5 mg/kg) (n=5), and vehicle was administered intravenously to Group C (n=5), respectively (Day 0). Two hours after intravenous administration, an anti-nicotinic acetylcholine receptor monoclonal antibody (mAb35, National Hospital Organization Nagasaki Kawatana Medical Center) dissolved in PBS (pH 7.4) as a drug for inducing the pathology of myasthenia gravis was administered intraperitoneally to all animals at 200 µg/rat (Day 0).
The Wire-hang Test was performed approximately 30 hours after antibody administration. The implementation procedure was the same as that in Example 3(1) B.

CCCCCCCCCCCCCCCC(=O)NCCCC[C@H](NC(=O)[C@H](CNC(=O)CCOCCOCCOCCNC(=O)CNC(=O)[C@@H]1CSCC(=O)N[C@H](Cc2ccc(O)cc2)C(=O)N2CCC[C@H]2C(=O)N[C@@H](CO)C(=O)N[C@@H](Cc2ccc(O)cc2)C(=O)N[C@@H](Cc2c[nH]cn2)C(=O)N[C@@H]([C@@H](C)O)C(=O)N[C@@H](CC(N)=O)C(=O)N[C@@H](C(C)C)C(=O)N[C@@H](C(C)C)C(=O)N[C@@H](C)C(=O)N[C@@H](CO)C(=O)N[C@@H](CC(C)C)C(=O)N[C@@H](CCCCN)C(=O)N[C@@H](CCCNC(=N)N)C(=O)N1)NC(=O)CCOCCOCCOCCNC(=O)CNC(=O)[C@@H]1CSCC(=O)N[C@H](Cc2ccc(O)cc2)C(=O)N2CCC[C@H]2C(=O)N[C@@H](CO)C(=O)N[C@@H](Cc2ccc(O)cc2)C(=O)N[C@@H](Cc2c[nH]cn2)C(=O)N[C@@H]([C@@H](C)O)C(=O)N[C@@H](CC(N)=O)C(=O)N[C@@H](C(C)C)C(=O)N[C@@H](C(C)C)C(=O)N[C@@H](C)C(=O)N[C@@H](CO)C(=O)N[C@@H](CC(C)C)C(=O)N[C@@H](CCCCN)C(=O)N[C@@H](CCCNC(=N)N)C(=O)N1)C(N)=O [MuSK7-pal] (I: {CH2CO}-[dY]PSYHTNVVASLKRCG[PEG3][Dap]K(Palmitoyl)-NH2 / II: {CH2CO}-[dY]PSYHTNVVASLKRCG[PEG3]; amide I:18-II:C; thioether I:N-I:15, II:N-II:15)
mean latency to fall (0.1 mg/kg intravenously (Group D, Example 3(2))): 25.3 s
mean latency to fall (0.25 mg/kg intravenously (Group C, Example 3(2))): 32.3 s
mean latency to fall (0.5 mg/kg intravenously (Group B, Example 3(2))): 11.3 s
mean latency to fall (1 mg/kg intravenously (Group D, Example 3(1)), max 120 seconds): 69.6 s
mean latency to fall (2 mg/kg intravenously (Group C, Example 3(1)), max 120 seconds): 29.2 s
mean latency to fall (3 mg/kg intravenously (Group B, Example 3(1)), max 120 seconds): 17.6 s
